This is an account of results in US20080090805A1, “CB-1 MODULATING COMPOUNDS AND THEIR USE” (ACADIA PHARMACEUTICALS INC., priority 2005, published 2008).

In the assay the target is CB1 (mutant) (Homo sapiens, UniProt P21554). As to the kind of experiment: R-SAT functional receptor assay, CB1 (mutant, truncated after amino acid 417). In kind it is cell-based. To be noted: R-SAT CB1; for Emax: read-out: % Inhibition.
Where [1] appears, read: Appendix A, receptor form (mutant or wild-type) not stated, read-out: pIC50 (converted).
Where [2] appears, read: Appendix A, receptor form not stated, relative to SR141716 (100%).
Where [3] appears, read: pIC50, Appendix A, receptor form (mutant or wild-type) not stated.

Like-named read-outs stand apart in the source and are kept apart here.

CB1 (mutant), sequence (P21554 1-417, change not shown): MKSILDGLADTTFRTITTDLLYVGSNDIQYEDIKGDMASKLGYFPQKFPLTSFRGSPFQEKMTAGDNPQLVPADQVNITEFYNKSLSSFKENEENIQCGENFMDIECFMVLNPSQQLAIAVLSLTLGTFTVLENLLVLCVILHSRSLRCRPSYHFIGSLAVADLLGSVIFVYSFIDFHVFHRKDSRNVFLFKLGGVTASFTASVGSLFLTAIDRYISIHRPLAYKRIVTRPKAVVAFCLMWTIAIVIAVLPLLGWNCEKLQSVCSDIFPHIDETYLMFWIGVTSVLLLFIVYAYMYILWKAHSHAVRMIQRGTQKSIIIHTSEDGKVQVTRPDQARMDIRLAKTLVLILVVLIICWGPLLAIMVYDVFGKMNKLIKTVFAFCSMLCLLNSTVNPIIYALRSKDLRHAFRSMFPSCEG

Take `O=C(NCc1ccco1)c1ccc2c(c1)N=C(c1ccccn1)c1ccccc1S2`: the IC50 under setting [1] is 31.6 nM. Under setting [2], the Emax was found to be 102%. The corresponding values for `O=C(NN1CCCCCC1)c1ccc2c(c1)N=C(c1ccccc1F)c1ccccc1S2` [drawing 578] are 50.1 nM and 87%.

As for `C[C@@H]1CCC[C@H](C)N1NC(=O)c1ccc2c(c1)N=C(c1ccccc1F)c1ccccc1S2` [drawing 1149], the IC50 under setting [1] is 39.8 nM. For the same compound, under setting [2], the Emax was determined as 103%. The corresponding values for `O=C(NCCc1ccccc1)c1ccc2c(c1)N=C(c1ccccc1)c1ccccc1S2` [drawing 1023] are 25.1 nM and 106%. Taken in the same sequence, the figures for `O=C(NN1CCCCCC1)c1ccc2c(c1)N=C(c1ccc(F)cc1)c1ccccc1S2` [drawing 1009] were 25.1 nM and 92%. Taken in the same sequence, the figures for `O=C(NCCc1cccnc1)c1ccc2c(c1)N=C(c1ccc(Cl)cc1Cl)c1ccccc1S2` were 200 nM and 74%.

In the case of `O=C(NCc1ccc(Cl)cc1Cl)c1ccc2c(c1)N=C(N1CCCCC1)c1ccccc1S2` [drawing 1123], under setting [1], the IC50 was 39.8 nM. For the same compound, the Emax under setting [2] was determined as 101%.

With `CON(C)C(=O)c1ccc2c(c1)N=C(c1ccc(Cl)s1)c1ccccc1S2`, under setting [1], the IC50 was 501 nM. For the same compound, the Emax under setting [2] was determined as 55%. As for `CCCC1=Nc2cc(C(=O)N3CCC(C(=O)OCC)CC3)ccc2Sc2ccccc21`, the IC50 under setting [1] is 200 nM. Further, the Emax under setting [2] worked out at 108%. Regarding `O=C(NNC(=O)c1ccc2c(c1)N=C(c1ccc(F)cc1)c1ccccc1S2)c1ccccc1` [drawing 764], the IC50 under setting [1] is 100 nM. For the same compound, the Emax under setting [2] came out at 83%.

Take `O=C(NCCc1cccc(Cl)c1)c1ccc2c(c1)N=C(c1ccccc1F)c1ccccc1S2` [drawing 736]: under setting [1], the IC50 is 79.4 nM. In addition, the Emax under setting [2] is 91%. Take `O=C(NCc1cccs1)c1ccc2c(c1)N=C(c1ccccc1Cl)c1ccccc1S2`: under setting [1], the IC50 was 200 nM. The Emax under setting [2] was 87%. The corresponding values for `O=C(NC1CCC(F)(F)CC1)c1ccc2c(c1)N=C(c1ccc(F)cc1)c1ccccc1S2` [drawing 821] are 12.6 nM and 91%. As for `CCCC1=NC2=C(CCC(C(=O)N3CCN(c4ccccc4F)CC3)=C2)Sc2ccccc21`, the IC50 under setting [1] is 251 nM. Further, under setting [2], the Emax turned out to be 97%. The corresponding values for `O=C(NN1CCCC1)c1ccc2c(c1)N=C(c1ccccc1F)c1ccccc1S2` are 200 nM and 69%. The corresponding values for `CCCC1=Nc2cc(C(=O)NCC3C=CC4=C(C3)OCO4)ccc2Sc2ccccc21` (centres unmarked) are 398 nM and 91%. On to `CCCC1=Nc2cc(C(=O)NCCCN3CCCCC3CC)ccc2Sc2ccccc21` (centres unmarked), for which, under setting [2], the Emax turned out to be 128%. As for `O=C(NC1CCCC1)c1ccc2c(c1)N=C(c1ccccc1F)c1ccccc1S2`, under setting [1], the IC50 was 398 nM. Further, the Emax under setting [2] worked out at 79%. In the case of `Cc1cnc(-c2ccc3c(c2)N=C(c2ccc(Cl)cc2)c2ccccc2S3)[nH]1` [drawing 872], the IC50 under setting [1] is 200 nM. Besides, under setting [2], the Emax is 88%. With `O=C(NCc1ccc(F)cc1)c1ccc2c(c1)N=C(c1ccc(F)cc1)c1ccccc1N2`, the Emax under setting [2] is 61%. In the case of `CC(C)CC1=Nc2cc(C(=O)NN3CCCCC3)ccc2Sc2ccccc21`, the IC50 under setting [1] was 200 nM. Besides, under setting [2], the Emax was found to be 90%. Taken in the same sequence, the figures for `O=C(NCCc1ccncc1)c1ccc2c(c1)N=C(c1ccc(Cl)c(Cl)c1)c1ccccc1S2` [drawing 1095] were 31.6 nM and 119%. The corresponding values for `CCCCNC(=O)c1ccc2c(c1)N=C(C1CCCCC1)c1ccccc1S2` [drawing 937] are 20 nM and 106%. As to `CCCCN(C)C(=O)c1ccc2c(c1)N=C(c1cccc(F)c1)c1ccccc1S2`, the IC50 under setting [1] is 63.1 nM. For the same compound, the Emax under setting [2] came to 90%.

With `CC(C)NC(=O)c1ccc2c(c1)N=C(c1ccc(Cl)cc1F)c1ccccc1S2` [drawing 664], the IC50 under setting [1] is 63.1 nM. The Emax under setting [2] is 101%. As to `CONC(=O)c1ccc2c(c1)N=C(c1ccc(C#N)cc1)c1ccccc1S2`, the negative-log IC50 (pIC50) (usually the negative decadic logarithm of the IC50, by convention in mol/L) (Appendix A, receptor form (mutant or wild-type) not stated) turned out to be 1.0. Also, the Emax under setting [2] was found to be 36%. Regarding `CC(NC(=O)c1ccc2c(c1)N=C(c1ccc(Cl)cc1)c1ccccc1S2)c1ccccc1` (centres unmarked) [drawing 1107], the IC50 under setting [1] is 39.8 nM. Further, the Emax under setting [2] stood at 88%.

As to `CC(C)NC(=O)c1ccc2c(c1)N=C(c1ccc(F)cc1)c1ccccc1S2` [drawing 1079], the IC50 under setting [1] is 31.6 nM. For the same compound, the Emax under setting [2] worked out at 97%. `COc1ccccc1C1=Nc2cc(C(=O)NCCC(C)C)ccc2Sc2ccccc21`: under setting [2], the Emax is 91%. Turning to `CCCC1=Nc2cc(C(=O)NCCN(CC)c3ccccc3)ccc2Sc2ccccc21` [drawing 885], the IC50 under setting [1] was 15.8 nM. The Emax under setting [2] came out at 106%.

`O=C(NCCc1ccccn1)c1ccc2c(c1)N=C(c1ccc(Br)cc1)c1ccccc1S2` [drawing 734]: under setting [1], the IC50 was 79.4 nM. Besides, the Emax under setting [2] turned out to be 89%. The corresponding values for `CCCC1=Nc2cc(C(=O)N3CCN(c4cccc(C(F)(F)F)c4)CC3)ccc2Sc2ccccc21` are 251 nM and 91%. Regarding `CCCCNC(=O)c1ccc2c(c1)N=C(c1ccc(F)cc1)c1ccccc1S2` [drawing 785], the Emax under setting [2] worked out at 96%. For the same compound, the IC50 under setting [3] was 10 nM. With `O=C(NC1CCCC1)c1ccc2c(c1)N=C(c1ccc(F)cc1)c1ccccc1S2` [drawing 720], the Emax under setting [2] amounted to 117%. For the same compound, under setting [3], the IC50 was 79.4 nM.

For the compound `C[C@@H]1CCC[C@H](C)N1NC(=O)c1ccc2c(c1)N=C(c1ccc(Cl)cc1)c1ccccc1S2` [drawing 1133], the IC50 under setting [1] was 39.8 nM. The Emax under setting [2] was 96%. As to `O=C(NCc1ccncc1)c1ccc2c(c1)N=C(c1ccc(F)cc1)c1ccccc1S2` [drawing 716], the IC50 under setting [1] was 79.4 nM. Moreover, under setting [2], the Emax worked out at 101%.

In the case of `COc1cccc(C2=Nc3cc(C(=O)NCCC(F)(F)F)ccc3Sc3ccccc32)n1` [drawing 707], the IC50 under setting [1] was 7.94 nM. Besides, the Emax under setting [2] amounted to 104%. Consider `CCCCNC(=O)c1ccc2c(c1)N=C(c1ccc(Cl)cc1)c1cc(F)ccc1S2` [drawing 1111], for which the IC50 under setting [1] is 39.8 nM. In addition, the Emax under setting [2] turned out to be 98%. With `CCCCNC(=O)c1ccc2c(c1)N=C(c1ccc(Cl)cn1)c1cc(F)ccc1S2` [drawing 560], the IC50 under setting [1] was 50.1 nM. Moreover, under setting [2], the Emax is 100%. On to `CC(CNC(=O)c1ccc2c(c1)N=C(c1ccc(F)cc1)c1ccccc1S2)c1ccccc1` (centres unmarked) [drawing 639], for which the Emax under setting [2] amounted to 98%. Moreover, under setting [3], the IC50 was 5.01 nM. With `CC(C)CNC(=O)c1ccc2c(c1)N=C(c1ccc(Cl)cn1)c1ccc(F)cc1S2` [drawing 558], the IC50 under setting [1] was 50.1 nM. Besides, the Emax under setting [2] was 123%. Regarding `O=C(NCc1cccnc1)c1ccc2c(c1)N=C(c1cccc(F)c1)c1ccccc1S2` [drawing 793], the IC50 under setting [1] is 10 nM. For the same compound, the Emax under setting [2] is 130%. Taken in the same sequence, the figures for `CCCC1=Nc2cc(C(=O)NCCCN(CC(C)C)CC(C)C)ccc2Sc2ccccc21` were 63.1 nM and 103%. The corresponding values for `CCCCNC(=O)c1ccc2c(c1)N=C(c1ccccc1F)c1ccccc1S2` [drawing 1129] are 39.8 nM and 96%. The corresponding values for `CCCCCC1=Nc2cc(C(=O)NC3CCN(C(=O)OCC)CC3)ccc2Sc2ccccc21` are 501 nM and 87%. Turning to `NS(=O)(=O)c1ccc(CNC(=O)c2ccc3c(c2)N=C(c2ccc(F)cc2)c2ccccc2S3)cc1` [drawing 812], the Emax under setting [2] amounted to 83%. For `CONC(=O)c1ccc2c(c1)N=C(c1ccc(Cl)cc1F)c1ccccc1S2`, the IC50 under setting [1] is 200 nM. In addition, the Emax under setting [2] turned out to be 69%. Taken in the same sequence, the figures for `CCONC(=O)c1ccc2c(c1)N=C(c1sccc1C)c1ccccc1S2` were 200 nM and 77%.

As to `C=C(/C=C\C1=CN=C(CCC)c2ccccc2S1)C(=O)NC1CCCC1`, the IC50 under setting [1] is 79.4 nM. For the same compound, under setting [2], the Emax was determined as 109%. The corresponding values for `O=C(NCc1ccccc1Br)c1ccc2c(c1)N=C(c1ccccc1F)c1ccccc1S2` [drawing 602] are 50.1 nM and 65%.

Regarding `O=C(NCc1ccc(Cl)cc1Cl)c1ccc2c(c1)N=C(C1CCCCC1)c1ccccc1S2`, under setting [1], the IC50 was 31.6 nM. Moreover, the Emax under setting [2] was determined as 90%. Taken in the same sequence, the figures for `CCCC1=Nc2cc(C(=O)N3CCC(N4CCCCC4)CC3)ccc2Sc2ccccc21` were 2510 nM and 128%. Turning to `O=C(NCc1cccc(Cl)c1)c1ccc2c(c1)N=C(c1ccccc1F)c1ccccc1S2` [drawing 1083], the IC50 under setting [1] is 31.6 nM. For the same compound, the Emax under setting [2] is 99%. The corresponding values for `CCCC1=Nc2cc(C(=O)NCCCOCC)ccc2Sc2ccccc21` are 50.1 nM and 92%.

As to `O=C(NCc1ccncc1)c1ccc2c(c1)N=C(NCc1ccc(Cl)cc1)c1ccccc1S2`, the IC50 under setting [1] is 794 nM. Further, the Emax under setting [2] amounted to 56%. Taken in the same sequence, the figures for `O=C(NCc1cccnc1)c1ccc2c(c1)N=C(c1ccc(F)cc1)c1ccccc1S2` [drawing 931] were 15.8 nM and 123%. On to `O=C(NN1CCCC1)c1ccc2c(c1)N=C(c1cccc(Cl)c1)c1ccccc1S2`, for which the Emax under setting [2] stood at 85%. With `COc1cccc(C2=Nc3cc(C(=O)NCc4ccc(C)o4)ccc3Sc3ccccc32)n1` [drawing 554], the IC50 under setting [1] was 50.1 nM. For the same compound, under setting [2], the Emax amounted to 84%.

For the compound `CC(C)CNC(=O)c1ccc2c(c1)N=C(c1cccc(F)c1)c1ccccc1S2` [drawing 629], the IC50 under setting [1] was 5.01 nM. Moreover, the Emax under setting [2] is 112%. Take `CC(C)NC(=O)c1ccc2c(c1)N=C(c1ccccc1Cl)c1ccccc1S2`: under setting [1], the IC50 was 631 nM. In addition, the Emax under setting [2] was found to be 46%. `CC(C)CNC(=O)c1ccc2c(c1)N=C(c1cccc(Cl)c1)c1ccccc1S2` [drawing 565]: the % Inhibition (as a rule, the change of the read-out against control, counted positive when it falls) under setting [2] is recorded as 105%.
